Source: PubChem BioAssay (NCI)
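Five compound concentrations were applied to cells in 96-well plates for 48 hours; endpoints were derived by simple linear interpolation of the resulting dose-response curve. TGI: concentration producing complete growth inhibition.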

What was measured:
Experiment in all cases: NCI-60 cell line screen, 48 h
[1] = test system: SK-OV-3 ovarian
[2] = test system: NCI-H226 lung
[3] = test system: U251 CNS
[4] = test system: HOP-62 NSCLC
[5] = test system: OVCAR-5 ovarian
[6] = test system: EKVX NSCLC
[7] = test system: HL-60(TB) leukemia
[8] = test system: MDA-N
[9] = test system: HCT-15 colon
[10] = test system: HCT-116 colon
[11] = test system: DU-145 prostate
[12] = test system: NCI/ADR-RES ovarian
[13] = test system: K-562 leukemia
[14] = test system: SNB-19 CNS
[15] = test system: SK-MEL-5 melanoma
[16] = test system: ACHN renal
[17] = test system: 786-0 renal
[18] = test system: SK-MEL-28 melanoma
[19] = test system: BT-549 breast
[20] = test system: SNB-75 CNS
[21] = test system: NCI-H23 lung
[22] = test system: A498 renal
[23] = test system: NCI-H522 lung
[24] = test system: SN12C renal
[25] = test system: RPMI-8226 leukemia
[26] = test system: IGROV1 ovarian
[27] = test system: NCI-H460 lung
[28] = test system: A549 NSCLC
[29] = test system: RXF 393 renal
[30] = test system: MOLT-4 leukemia
[31] = test system: HOP-92 NSCLC
[32] = test system: LOX IMVI melanoma
[33] = test system: PC-3 prostate
[34] = test system: MDA-MB-435
[35] = test system: MALME-3M melanoma
[36] = test system: HCC-2998 colon
[37] = test system: SF-268 CNS
[38] = test system: UO-31 renal
[39] = test system: CAKI-1 renal
[40] = test system: SR leukemia
[41] = test system: COLO 205 colon
[42] = test system: OVCAR-3 ovarian
[43] = test system: CCRF-CEM leukemia
[44] = test system: MDA-MB-231 breast
[45] = test system: KM12 colon
[46] = test system: T-47D breast
[47] = test system: UACC-257 melanoma
[48] = test system: SF-539 CNS
[49] = test system: M14 melanoma
[50] = test system: SW-620 colon
[51] = test system: OVCAR-8 ovarian
[52] = test system: TK-10 renal
[53] = test system: SF-295 CNS
[54] = test system: UACC-62 melanoma
[55] = test system: SK-MEL-2 melanoma
[56] = test system: HT29 colon
[57] = test system: MCF7 breast

O=C(O)c1nc2ccccc2nc1Nc1ccc(Cl)c(Cl)c1
TGI [1]: 88.1 µM
TGI [2]: > 100 µM
TGI [3]: > 100 µM
TGI [4]: 58 µM
TGI [5]: > 100 µM
TGI [6]: > 100 µM
TGI [7]: > 100 µM
TGI [8]: > 100 µM
TGI [9]: 36.1 µM
TGI [10]: 76.7 µM
TGI [11]: > 100 µM
TGI [12]: > 100 µM
TGI [13]: > 100 µM
TGI [14]: > 100 µM
TGI [15]: 47 µM
TGI [16]: > 100 µM
TGI [17]: 63.9 µM
TGI [18]: 75 µM
TGI [19]: 61.4 µM
TGI [20]: > 100 µM
TGI [21]: 50.1 µM
TGI [22]: 41.6 µM
TGI [23]: 60.1 µM
TGI [24]: > 100 µM
TGI [25]: > 100 µM
TGI [26]: > 100 µM
TGI [27]: 82.5 µM
TGI [28]: > 100 µM
TGI [29]: 69.3 µM
TGI [30]: > 100 µM
TGI [31]: 59 µM
TGI [32]: > 100 µM
TGI [33]: > 100 µM
TGI [34]: > 100 µM
TGI [35]: > 100 µM
TGI [36]: 73.5 µM
TGI [37]: > 100 µM
TGI [38]: 33.6 µM
TGI [39]: 77.9 µM
TGI [40]: > 100 µM
TGI [41]: 82.6 µM
TGI [42]: 37.2 µM
TGI [43]: > 100 µM
TGI [44]: 90 µM
TGI [45]: 54 µM
TGI [46]: 72.1 µM
TGI [47]: > 100 µM
TGI [48]: 43.7 µM
TGI [49]: 82 µM
TGI [50]: > 100 µM
TGI [51]: > 100 µM
TGI [52]: > 100 µM
TGI [53]: 69.8 µM

O=C1NC2NC3NC(=O)NC3NC2N1 (stereo not drawn)
TGI [2]: > 100 µM
TGI [3]: > 100 µM
TGI [4]: > 100 µM
TGI [5]: > 100 µM
TGI [6]: > 100 µM
TGI [54]: > 100 µM
TGI [7]: > 100 µM
TGI [8]: > 100 µM
TGI [10]: > 100 µM
TGI [11]: > 100 µM
TGI [12]: > 100 µM
TGI [13]: > 100 µM
TGI [14]: > 100 µM
TGI [15]: > 100 µM
TGI [16]: > 100 µM
TGI [17]: > 100 µM
TGI [18]: > 100 µM
TGI [19]: > 100 µM
TGI [20]: > 100 µM
TGI [55]: > 100 µM
TGI [56]: > 100 µM
TGI [21]: > 100 µM
TGI [22]: > 100 µM
TGI [23]: > 100 µM
TGI [24]: > 100 µM
TGI [25]: > 100 µM
TGI [26]: > 100 µM
TGI [28]: > 100 µM
TGI [29]: > 100 µM
TGI [30]: > 100 µM
TGI [31]: > 100 µM
TGI [32]: > 100 µM
TGI [33]: > 100 µM
TGI [34]: > 100 µM
TGI [35]: > 100 µM
TGI [38]: > 100 µM
TGI [39]: > 100 µM
TGI [40]: > 100 µM
TGI [41]: > 100 µM
TGI [42]: > 100 µM
TGI [57]: > 100 µM
TGI [43]: > 100 µM
TGI [44]: > 100 µM
TGI [45]: > 100 µM
TGI [47]: > 100 µM
TGI [48]: > 100 µM
TGI [49]: > 100 µM
TGI [50]: > 100 µM
TGI [51]: > 100 µM
TGI [53]: > 100 µM
